Measured values from patent publication US20260217708A1, “FUSED BENZAZEPINE DERIVATIVES FOR USE IN THE TREATMENT OF CANCER AND EPILEPSY” (UCB BIOPHARMA SRL, priority 2023, published 2026).

Legend:
system Xc^− [1] = target: T1, system Xc^− (Homo sapiens, UniProt Q9UPY5); experiment: Cystine-induced glutamate release assay; format: cell-based; set-up: endogenous in cells; host or cells: H4 cells; conditions: H4 cells, sodium-free HEPES buffer, 50 μM L-Cystine, 2 hours, Amplex Red glutamate readout; read-out: pIC50 Cystine-induced glutamate release assay (converted)
T1 sequence (Q9UPY5 1-501): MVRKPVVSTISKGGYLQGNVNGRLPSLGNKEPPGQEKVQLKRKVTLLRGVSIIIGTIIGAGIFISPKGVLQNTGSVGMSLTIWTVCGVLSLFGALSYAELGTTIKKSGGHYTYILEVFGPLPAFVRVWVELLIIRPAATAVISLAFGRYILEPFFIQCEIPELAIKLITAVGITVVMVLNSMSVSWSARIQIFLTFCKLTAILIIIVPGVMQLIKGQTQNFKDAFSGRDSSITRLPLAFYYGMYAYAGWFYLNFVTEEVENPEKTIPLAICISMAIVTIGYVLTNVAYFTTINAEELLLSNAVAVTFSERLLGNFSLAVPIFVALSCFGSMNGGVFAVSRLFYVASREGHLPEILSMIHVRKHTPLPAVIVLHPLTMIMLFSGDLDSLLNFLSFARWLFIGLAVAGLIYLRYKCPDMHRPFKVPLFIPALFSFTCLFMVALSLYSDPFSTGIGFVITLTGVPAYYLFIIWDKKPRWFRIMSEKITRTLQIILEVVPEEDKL
T1 sequence (P08195 1-529 partner): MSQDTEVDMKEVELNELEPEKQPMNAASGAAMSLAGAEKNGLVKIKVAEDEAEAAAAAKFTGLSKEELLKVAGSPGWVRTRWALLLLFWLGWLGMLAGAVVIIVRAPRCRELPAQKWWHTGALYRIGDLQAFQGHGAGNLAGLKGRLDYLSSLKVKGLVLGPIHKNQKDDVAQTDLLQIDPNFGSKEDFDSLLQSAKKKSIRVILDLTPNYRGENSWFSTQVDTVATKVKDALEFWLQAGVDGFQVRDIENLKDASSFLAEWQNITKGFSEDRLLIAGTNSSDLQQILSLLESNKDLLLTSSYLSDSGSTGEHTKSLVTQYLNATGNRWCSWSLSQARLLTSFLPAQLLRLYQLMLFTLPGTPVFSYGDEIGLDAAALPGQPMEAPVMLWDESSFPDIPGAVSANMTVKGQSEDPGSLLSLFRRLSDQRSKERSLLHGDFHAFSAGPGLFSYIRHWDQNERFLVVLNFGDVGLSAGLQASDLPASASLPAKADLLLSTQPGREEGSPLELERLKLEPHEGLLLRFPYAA
Procedure, shortened: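 H4 cells in sodium-free HEPES buffer (pH 7.4), 2 days after plating; glutamate release induced with 50 μM L-cystine plus compound (1% DMSO), 2 h at 37 °C. Supernatant glutamate measured by Amplex Red fluorescence; IC50/pIC50 derived between 1% DMSO and 50 μM erastin controls.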

system Xc^− [2] = target: T1, system Xc^−; experiment: [^14C]L-Cystine uptake assay; format: cell-based; set-up: endogenous in cells; host or cells: H4 cells; conditions: H4 cells, sodium-free HEPES buffer, 0.5 μM L-[14C]Cystine and 4.5 μM L-Cystine, 1 hour at 37° C.; read-out: pIC50 [^14C] L-Cystine uptake assay (converted)
Procedure, shortened: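 H4 cells at 5×10^4 cells/well in sodium-free HEPES buffer were preincubated 15 min with compounds (1% DMSO). Uptake of 0.5 μM [14C]L-cystine plus 4.5 μM unlabelled L-cystine ran 1 hour at 37° C on scintillating plates. IC50 was set between 1% DMSO and 50 μM Erastin controls and expressed as pIC50.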

Compound	IC50 (system Xc^− [1])	IC50 (system Xc^− [2])
CCn1c(C)cc2c(c1=O)-c1cccnc1CC(=O)N2CC(=O)Nc1ccc(C(F)(F)F)cc1 [#125, 2-(4-ethyl-5-methyl-3,9-dioxo-4,8,12-triazatricyclo[9.4.0.0^2,7]pentadeca-1(15),2(7),5,11,13-pentaen-8-yl)-N-[4-(trifluoromethyl)phenyl]acetamide]	39.8 to 100 nM	39.8 to 100 nM
Cc1cc2c(c(Cl)n1)-c1cccnc1N(C)C(=O)N2CC(=O)Nc1ccc(C(F)(F)F)cc1 [#126, 2-(3-chloro-5,10-dimethyl-9-oxo-4,8,10,12-tetrazatricyclo[9.4.0.0^2,7]pentadeca-1(11),2,4,6,12,14-hexaen-8-yl)-N-[4-(trifluoromethyl)phenyl]acetamide]	15.8 to 39.8 nM	< 15.8 nM
Cc1cc2c(c(C#N)n1)-c1cc(F)ccc1CC(=O)N2CC(=O)Nc1ccc(C(F)(F)F)cc1 [#127, 2-(1-cyano-10-fluoro-3-methyl-6-oxo-7H-pyrido[4,3-d][3]benzazepin-5-yl)-N-[4-(trifluoromethyl)phenyl]acetamide]	39.8 to 100 nM	< 15.8 nM
Cc1cc2c(c(F)n1)-c1cccnc1C(C)C(=O)N2CC(=O)Nc1ccc(C)c(F)c1 (stereo not drawn) [#128, 2-(3-fluoro-5,10-dimethyl-9-oxo-4,8,12-triazatricyclo[9.4.0.0^2,7]pentadeca-1(11),2(7),3,5,12,14-hexaen-8-yl)-N-(3-fluoro-4-methyl-phenyl)acetamide]	15.8 to 39.8 nM	< 15.8 nM
Cc1cc2c(c(F)n1)-c1cccnc1C(C)C(=O)N2CC(=O)Nc1ccc2c(cnn2C)c1 (stereo not drawn) [#129, 2-(3-fluoro-5,10-dimethyl-9-oxo-4,8,12-triazatricyclo[9.4.0.0^2,7]pentadeca-1(11),2(7),3,5,12,14-hexaen-8-yl)-N-(1-methylindazol-5-yl)acetamide]	39.8 to 100 nM	39.8 to 100 nM
Cc1cc2c(c(F)n1)-c1cccnc1C(C)C(=O)N2CC(=O)Nc1ccc(F)c(F)c1 (stereo not drawn) [#130, N-(3,4-difluorophenyl)-2-(3-fluoro-5,10-dimethyl-9-oxo-4,8,12-triazatricyclo[9.4.0.0^2,7]pentadeca-1(11),2(7),3,5,12,14-hexaen-8-yl)acetamide]	39.8 to 100 nM	39.8 to 100 nM
COc1ccc(NC(=O)CN2C(=O)C(C)c3ncccc3-c3c2cc(C)nc3F)cc1F (stereo not drawn) [#131, 2-(3-fluoro-5,10-dimethyl-9-oxo-4,8,12-triazatricyclo[9.4.0.0^2.7]pentadeca-1(11),2(7),3,5,12,14-hexaen-8-yl)-N-(3-fluoro-4-methoxy-phenyl)acetamide]	39.8 to 100 nM	15.8 to 39.8 nM
Cc1cc2c(c(F)n1)-c1cccnc1C(C)C(=O)N2CC(=O)Nc1ccc(C(F)F)cc1 (stereo not drawn) [#132, N-[4-(difluoromethyl)phenyl]-2-(3-fluoro-5,10-dimethyl-9-oxo-4,8,12-triazatricyclo[9.4.0.0^2,7]pentadeca-1(11),2(7),3,5,12,14-hexaen-8-yl)acetamide]	39.8 to 100 nM	< 15.8 nM
Cc1cc2c(c(F)n1)-c1cccnc1C(C)C(=O)N2CC(=O)Nc1ccc(C#N)c(F)c1 (stereo not drawn) [#133, N-(4-cyano-3-fluoro-phenyl)-2-(3-fluoro-5,10-dimethyl-9-oxo-4,8,12-triazatricyclo[9.4.0.0^2,7]pentadeca-1(11),2(7),3,5,12,14-hexaen-8-yl)acetamide]	39.8 to 100 nM	39.8 to 100 nM
Cc1cc2c(c(F)n1)-c1ccccc1CC(=O)N2CC(=O)Nc1ccc(C(F)F)cc1 [#134, N-[4-(difluoromethyl)phenyl]-2-(1-fluoro-3-methyl-6-oxo-7H-pyrido[4,3-d][3]benzazepin-5-yl)acetamide]	39.8 to 100 nM	< 15.8 nM
Cc1cc2c(c(F)n1)-c1cccnc1C(C)C(=O)N2CC(=O)Nc1ccc(C2CC2)c(F)c1 (stereo not drawn) [#135, N-(4-cyclopropyl-3-fluoro-phenyl)-2-(3-fluoro-5,10-dimethyl-9-oxo-4,8,12-triazatricyclo[9.4.0.0^2,7]pentadeca-1(11),2(7),3,5,12,14-hexaen-8-yl)acetamide]	15.8 to 39.8 nM	< 15.8 nM
Cc1cc2c(c(F)n1)-c1cccnc1C(C)C(=O)N2CC(=O)Nc1ccc(OC(F)F)c(F)c1 (stereo not drawn) [#136, N-[4-(difluoromethoxy)-3-fluoro-phenyl]-2-(3-fluoro-5,10-dimethyl-9-oxo-4,8,12-triazatricyclo[9.4.0.0^2,7]pentadeca-1(11),2(7),3,5,12,14-hexaen-8-yl)acetamide]	100 to 501 nM	15.8 to 39.8 nM
Cc1cc2c(c(F)n1)-c1cccnc1[C@@H](C)C(=O)N2CC(=O)Nc1ccc(C(F)(F)F)c(C)c1 [#137, 2-[(10R)-3-fluoro-5,10-dimethyl-9-oxo-4,8,12-triazatricyclo[9.4.0.0^2,7]pentadeca-1(11),2(7),3,5,12,14-hexaen-8-yl]-N-[3-methyl-4-(trifluoromethyl)phenyl]acetamide]	15.8 to 39.8 nM	15.8 to 39.8 nM
Cc1cc2c(c(F)n1)-c1cccnc1[C@@H](C)C(=O)N2CC(=O)Nc1ccc(I)cc1 [#138, 2-[(10R)-3-fluoro-5,10-dimethyl-9-oxo-4,8,12-triazatricyclo[9.4.0^2,7]pentadeca-1(11),2(7),3,5,12,14-hexaen-8-yl]-N-(4-iodophenyl)acetamide]	< 15.8 nM	< 15.8 nM
Cc1cc2c(c(F)n1)-c1cccnc1[C@@H](C)C(=O)N2CC(=O)Nc1ccc(OC(F)F)cc1 [#139, N-[4-(difluoromethoxy)phenyl]-2-[(10R)-3-fluoro-5,10-dimethyl-9-oxo-4,8,12-triazatricyclo[9.4.0.0^2,7]pentadeca-1(11),2(7),3,5,12,14-hexaen-8-yl]acetamide]	15.8 to 39.8 nM	15.8 to 39.8 nM
Cc1cc2c(c(F)n1)-c1cccnc1[C@@H](C)C(=O)N2CC(=O)Nc1ccc(F)c(F)c1 [#140, N-(3,4-difluorophenyl)-2-[(10R)-3-fluoro-5,10-dimethyl-9-oxo-4,8,12-triazatricyclo[9.4.0.0^2,7]pentadeca-1(11),2(7),3,5,12,14-hexaen-8-yl]acetamide]	15.8 to 39.8 nM	15.8 to 39.8 nM
Cc1cc2c(c(F)n1)-c1cccnc1[C@@H](C)C(=O)N2CC(=O)Nc1ccc2c(cnn2C)c1 [#141, 2-[(10R)-3-fluoro-5,10-dimethyl-9-oxo-4,8,12-triazatricyclo[9.4.0.0^2,7]pentadeca-1(11),2(7),3,5,12,14-hexaen-8-yl]-N-(1-methylindazol-5-yl)acetamide]	15.8 to 39.8 nM	15.8 to 39.8 nM
Cc1cc2c(c(F)n1)-c1cccnc1[C@@H](C)C(=O)N2CC(=O)Nc1ccc(C2CC2)cc1 [#142, N-(4-cyclopropylphenyl)-2-[(10R)-3-fluoro-5,10-dimethyl-9-oxo-4,8,12-triazatricyclo[9.4.0.0^2,7]pentadeca-1(11),2(7),3,5,12,14-hexaen-8-yl]acetamide]	15.8 to 39.8 nM	< 15.8 nM
Cc1cc2c(c(F)n1)-c1cccnc1[C@@H](C)C(=O)N2CC(=O)Nc1ccc(C(F)(F)F)c(F)c1 [#143, 2-[(10R)-3-fluoro-5,10-dimethyl-9-oxo-4,8,12-triazatricyclo[9.4.0.0^2,7]pentadeca-1(11),2(7),3,5,12,14-hexaen-8-yl]-N-[3-fluoro-4-(trifluoromethyl)phenyl]acetamide]	15.8 to 39.8 nM	< 15.8 nM
Cc1cc2c(c(F)n1)-c1cccnc1[C@@H](C)C(=O)N2CC(=O)Nc1ccc(C2CC2)c(F)c1 [#144, N-(4-cyclopropyl-3-fluoro-phenyl)-2-[(10R)-3-fluoro-5,10-dimethyl-9-oxo-4,8,12-triazatricyclo[9.4.0.0^2,7]pentadeca-1(11),2(7),3,5,12,14-hexaen-8-yl]acetamide]	15.8 to 39.8 nM	< 15.8 nM
Cc1cc2c(c(F)n1)-c1cccnc1[C@@H](C)C(=O)N2CC(=O)Nc1ccc(Br)cc1 [#145, N-(4-bromophenyl)-2-[(10R)-3-fluoro-5,10-dimethyl-9-oxo-4,8,12-triazatricyclo[9.4.0.0^2,7]pentadeca-1(11),2(7),3,5,12,14-hexaen-8-yl]acetamide]	< 15.8 nM	< 15.8 nM
